The test system of series [1] is JVM2 (Lymphoma). Nature of the series: MTT in vitro cytotoxicity, 72 hour incubation. The class given is cell-based. Particulars: Homo sapiens, JVM-2, MTT assay, JVM2 cells. Here is the method: (§1) The in vitro cytotoxicity of a selection of compounds was determined in a panel of cell lines using the standard MTT assay for a 72 hour incubation period (Table 1).
(§2) Tumor cell lines were maintained in RPMI1640 medium supplemented with 10% heat-inactivated fetal bovine serum, 2 mM L-glutamine and 1 mM sodium pyruvate. 1800 cells per well were seeded in a volume of 180 μl in a 96-well flat bottom polystyrene plate. The cells were allowed to adhere overnight at 37° C. in a CO2 incubator. Ligands were initially formulated in DMSO, and stocks stored at −80° C. They were then further formulated at lox concentration in RPMI1640 medium. 20 μl of diluted samples were added into each treatment well. On each plate, blank wells with no cells, and untreated wells containing cells, were included. Plates were then cultured at 37° C. in a CO2 incubator for 72 hrs. Cytotoxicity was evaluated using a tetrazolium salt-based assay, the MTT assay. After 72 hours, the supernatant was removed from each well and 200 μl of a sterile filtered 500 μg/ml MTT solution in water added to each well. The plates were then incubated at 37° C. in a CO2 incubator for 4 hrs. The supernatant was then removed and the formazan crystals formed solubilized by adding 150 μl of DMSO to each well. The plate was then read on a plate reader at 540 nm, and percentage cell survival calculated as follows: ((mean absorbance treated wells at concentration×−mean absorbance blank wells)÷(mean absorbance untreated wells at concentration×−mean absorbance blank wells))×100. Data were plotted as concentration in nM vs. % cell survival in Microsoft Excel, and IC50 values (concentration where cell survival is reduced by a half) were determined from the graph.

For series [2], the system named is Jurkat (Leukaemia). Nature of the series: MTT in vitro cytotoxicity, 72 hour incubation. The class given is cell-based. As to conditions: Homo sapiens, MTT assay, Jurkat cells. Here is the method:
as §1, §2
A general note: Tetrazolium assays rely on reduction of a dye to a coloured formazan, in cell work by metabolically active cells.

Series [3] has as its system RAJI (Lymphoma). Nature of the series: MTT in vitro cytotoxicity, 72 hour incubation. The class given is cell-based. Particulars: Homo sapiens, MTT assay, RAJI cells. As for the experimental part: as §1, §2
The nature of series [4]: Hydrophobicity investigation of free payloads by UPLC (hydrophobicity model). The class given is physicochemical. As to conditions: for Retention Time (min) seco form / Retention Time (min) spiro form: single runs 1-3 (triplicate), 0.1% TFA water/acetonitrile gradient; for Retention Time (min) seco form, Average: Average of runs, D only in seco form, the others observable as single species. Here is the method:
Both mobile phases were filtered through 0.22 μm filters and degassed by sonication under argon. Caffeine (Merck, UPLC grade) was employed a standard. Blank solvent samples (i.e., DMSO) were used during sample runs to confirm lack of carryover between injections and to monitor column performance.
UPLC-MS analysis was performed on a Waters Acquity H-Class Ultra-Performance Liquid Chromatography (UPLC) System equipped with an Acquity UPLC BEH, […] 50×2.10 mm (Waters, UK) column and a photodiode array detector […], using Waters MassLynx software. The gradient system used for LC analysis consisted of 0.1% trifluoroacetic acid (TFA) in water as Solvent A, and 0.1% trifluoroacetic acid (TFA) in acetonitrile as Solvent B. TFA was purchased from Merck (UK), and diluted to the required concentration with UPLC grade water and acetonitrile for Solvent A and Solvent B, respectively. TFA was added to ensure acidic conditions throughout the analysis. A flow rate of 0.4 mL/min was used, and the detection wavelength was 254 nm. Mass spectrometry data were collected using a Waters SQ Detector 2 coupled to a Waters Acquity H Class UPLC and a Photo Diode Array Detector (ACQ-PDA). The Waters SQ Detector 2 parameters were set to: Capillary (kV), 3.00; Cone (V), 30; De-solvation Temperature (° C.), 600; Cone flow rate (L/h), 50; De-solvation flow rate (L/h), 600.
Gradient method used: from 95% A/5% B to 20% B over 5 min. Then from 20% B to 60% B over 35 min, followed by from 60% B to 85% B over 10 min. It was further changed from 85% B to 90% B over 5 min and kept for a further 5 min. Finally, from 90% B to 95% B over 2.5 min, and then to 20% B over 2.5 min. 10 μL was split via a zero-dead volume T-piece which passed into the mass spectrometer.
Compounds were provided in powder form and were dissolved in DMSO to achieve 5 mM stock solution. This solution was then diluted to 500 μM with 50% acetonitrile/50% water.
A number of commercially available ADC payloads and internal reference compounds were also incorporated into the analysis, and their structures are presented in Table 3.

“And” between values parts separate entries of the source, which are not always exact repeats. Equal entries are not always repeated.

In general, IC50 refers to the concentration that gives 50% inhibition. On to `CNS(=O)(=O)c1ccc(C2=CCN3C(=O)c4cc(OC)c(OCCOCCC(=O)N5C[C@@H](CCl)c6c5cc(O)c5ccccc65)cc4N=C[C@@H]3C2)cc1` [Compound 76, 4-((S)-3-(2-(3-((S)-1-(Chloromethyl)-5-hydroxy-1,2-dihydro-3H-benzo[e]indol-3-yl)-3-oxopropoxy)ethoxy)-2-methoxy-12-oxo-6a,7,10,12-tetrahydrobenzo[e]pyrido[1,2-a][1,4]diazepin-8-yl)-N-methylbenzenesulfonamide], for which the half-maximal inhibitory concentration (IC50) amounted to 0.0138 nM in series [1], 0.0095 nM in series [2] and 0.0172 nM in series [3]. The “Retention Time (min) seco form” value in series [4] is recorded as 20.14 min. Further, the “Retention Time (min) spiro form” value in series [4] is 13.29 min and 13.28 min.
In the case of `COc1cc2cc(c1Cl)N(C)C(=O)C[C@](C)(OC(=O)[C@@H](C)N(C)C(=O)CCSC)[C@]1(C)O[C@H]1[C@H](C)[C@@H]1C[C@@](O)(NC(=O)O1)[C@H](OC)/C=C/C=C(\C)C2` [DM1, reference compound], the “Retention Time (min) seco form, Average” value in series [4] was 21.24 min.
In the case of `CCc1c2c(nc3ccc(O)cc13)-c1cc3c(c(=O)n1C2)COC(=O)[C@]3(O)CC` [SN38, reference compound], the “Retention Time (min) seco form, Average” value in series [4] amounted to 7.13 min.
As to `COc1cc2c(cc1OCCCCCC(=O)N1C[C@@H](CCl)c3c1cc(O)c1ccccc31)N=C[C@@H]1CCCCN1C2=O` [A, reference compound], in series [4], the “Retention Time (min) seco form” value was 22.55 min and 22.56 min; the “Retention Time (min) spiro form” value was 14.85 min and 14.83 min and 14.84 min.
`CNS(=O)(=O)c1ccc(C2=CCN3C(=O)c4cc(OC)c(OC[C@@H](O)CC(=O)N5C[C@@H](CCl)c6c5cc(O)c5ccccc65)cc4N=C[C@@H]3C2)cc1` [Compound 88, 4-((S)-3-((S)-4-((S)-1-(Chloromethyl)-5-hydroxy-1,2-dihydro-3H-benzo[e]indol-3-yl)-2-hydroxy-4-oxobutoxy)-2-methoxy-12-oxo-6a,7,10,12-tetrahydrobenzo[e]pyrido[1,2-a][1,4]diazepin-8-yl)-N-methylbenzenesulfonamide]: the IC50 in series [1] is 0.49 nM; in series [2], 0.97 nM; in series [3] it was 0.954 nM. In addition, the “Retention Time (min) seco form” value in series [4] is 18.73 min and 18.70 min. The “Retention Time (min) spiro form” value in series [4] was 12.47 min and 12.45 min.
As for `COc1cc2c(cc1OCCCC(=O)N1C[C@@H](CCl)c3c1cc(O)c1ccccc31)N=C[C@@H]1CC(c3ccsc3)=CCN1C2=O` [Compound 100, (S)-3-(4-((S)-1-(Chloromethyl)-5-hydroxy-1,2-dihydro-3H-benzo[e]indol-3-yl)-4-oxobutoxy)-2-methoxy-8-(thiophen-3-yl)-7,10-dihydrobenzo[e]pyrido[1,2-a][1,4]diazepin-12(6aH)-one], half-maximal inhibition in series [1] (IC50) was put at 0.001 nM. In addition, in series [4], the “Retention Time (min) seco form” value was 25.24 min and 25.23 min; the “Retention Time (min) spiro form” value is 17.94 min and 17.89 min and 17.93 min.
In the case of `COc1cc2c(cc1OCCCCCC(=O)N1C[C@@H](CCl)c3c1cc(O)c1ccccc31)N=C[C@@H]1CC(c3ccsc3)=CCN1C2=O` [Compound 96, (S)-3-((6-((S)-1-(Chloromethyl)-5-hydroxy-1,2-dihydro-3H-benzo[e]indol-3-yl)-6-oxohexyl)oxy)-2-methoxy-8-(thiophen-3-yl)-7,10-dihydrobenzo[e]pyrido[1,2-a][1,4]diazepin-12(6aH)-one], the half-maximal inhibitory concentration (IC50) in series [3] was 0.0014 nM. Further, in series [4], the “Retention Time (min) seco form” value was 28.04 min and 28.08 min and 28.06 min; the “Retention Time (min) spiro form” value was 21.00 min and 21.02 min.
Turning to `CC[C@H](C)C[C@H](OC)[C@@H](C(=O)N1CCC[C@H]1[C@@H](CC(=O)N[C@H](C)[C@@H](O)c1ccccc1)OC)N(C)C(=O)[C@@H](NC(=O)[C@@H](NC)C(C)C)C(C)C` [MMAE, reference compound], in series [4], the “Retention Time (min) seco form, Average” value was 12.04 min.
Consider `COc1cc2c(cc1OC[C@@H](O)CC(=O)N1C[C@@H](CCl)c3c1cc(O)c1ccccc31)N=C[C@@H]1CC(c3ccsc3)=CCN1C2=O` [Compound 108, (S)-3-((S)-4-((S)-1-(Chloromethyl)-5-hydroxy-1,2-dihydro-3H-benzo[e]indol-3-yl)-2-hydroxy-4-oxobutoxy)-2-methoxy-8-(thiophen-3-yl)-7,10-dihydrobenzo[e]pyrido[1,2-a][1,4]diazepin-12(6aH)-one], for which the IC50 came out at 0.0047 nM in series [1], 0.014 nM in series [2] and 0.01 nM in series [3]. Also, the “Retention Time (min) seco form” value in series [4] was 22.54 min and 22.53 min. Besides, the “Retention Time (min) spiro form” value in series [4] was 15.71 min and 15.69 min and 15.70 min.
In the case of `COc1cc2c(cc1OCCCCCC(=O)N1C[C@@H](CCl)c3c1cc(O)c1ccccc31)N=C[C@@H]1CCCN1C2=O` [C, reference compound], in series [4], the “Retention Time (min) seco form” value is 20.16 min and 20.15 min; the “Retention Time (min) spiro form” value was 12.49 min and 12.48 min and 12.45 min.
In the case of `COc1ccc(C2=CN3C(=O)c4cc(OC)c(OCCCOc5cc6c(cc5OC)C(=O)N5C=C(c7ccc(N)cc7)C[C@H]5C=N6)cc4N=C[C@@H]3C2)cc1` [SGD1882, reference compound], the “Retention Time (min) seco form, Average” value in series [4] turned out to be 12.55 min.
As to `COc1cc2c(cc1OCc1cccc(CC(=O)N3C[C@@H](CCl)c4c3cc(O)c3ccccc43)c1)N=C[C@@H]1CCCCN1C2=O` [B, reference compound], in series [4], the “Retention Time (min) seco form” value is 23.64 min and 23.65 min; the “Retention Time (min) spiro form” value was 16.10 min and 16.12 min and 16.09 min.
With `COc1cc2c(cc1OCCOCCC(=O)N1C[C@@H](CCl)c3c1cc(O)c1ccccc31)N=C[C@@H]1CC(c3ccsc3)=CCN1C2=O` [Compound 104, (S)-3-(2-(3-((S)-1-(Chloromethyl)-5-hydroxy-1,2-dihydro-3H-benzo[e]indol-3-yl)-3-oxopropoxy)ethoxy)-2-methoxy-8-(thiophen-3-yl)-7,10-dihydrobenzo[e]pyrido[1,2-a][1,4]diazepin-12(6aH)-one], the half-maximal inhibitory concentration (IC50) was 0.0018 nM in series [1], 0.0095 nM in series [2] and 0.0025 nM in series [3]. Further, the “Retention Time (min) seco form” value in series [4] is 24.10 min and 24.09 min. For the same compound, in series [4], the “Retention Time (min) spiro form” value was 16.90 min and 16.93 min and 16.91 min.
As to `COc1cc2c(cc1OCCCCCOc1cc3c(cc1OC)C(=O)N1C=C(C)C[C@H]1C=N3)C=C[C@@H]1CC(C)=CN1C2=O` [SG3199, reference compound], in series [4], the “Retention Time (min) seco form, Average” value is recorded as 12.02 min.
For `COc1cc2c(cc1OCc1cccc(CC(=O)N3C[C@@H](CCl)c4c3cc(OC(=O)N3CCN(C)CC3)c3ccccc43)c1)N=C[C@@H]1CCCCN1C2=O` [D, reference compound], in series [4], the “Retention Time (min) seco form, Average” value is reported as 17.03 min. Moreover, in series [4] (carbamate pro-drug D versus B), the “enhanced hydrophilicity (retention time) compared to the unsubstituted compound (B)” value is “approximately 10 mins”.
Consider `COc1cc2c(cc1OCc1cc(N)cc(COc3cc4c(cc3OC)C(=O)N3c5ccccc5C[C@H]3CN4)c1)N=C[C@@H]1Cc3ccccc3N1C2=O` [DGN549, reference compound], for which the “Retention Time (min) seco form, Average” value in series [4] is 16.60 min.

(Values after patent US20220098191A1 (priority 2019, published 2022).)
